Assays:
Assay in all cases: biochemical
Design in all cases: radiometric methyltransferase selectivity assay with tritiated SAM, per cent activity
Details in all cases: read-out: % of control remaining
PRMT6 = PRMT6 (Homo sapiens, UniProt Q96LA8)
How it was run: (§1)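 Radiometric methyltransferase assays with ³H-SAM and substrate near apparent Km, compound tested at 1 and 10 μM. Methyl incorporation into biotinylated substrate read by scintillation proximity after guanidine quench; no-compound = 100%, no-enzyme = 0% activity.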

NSD3 = biological target: T1, NSD3 (Homo sapiens, UniProt Q9BZ95)
T1 sequence (Q9BZ95 1-1437): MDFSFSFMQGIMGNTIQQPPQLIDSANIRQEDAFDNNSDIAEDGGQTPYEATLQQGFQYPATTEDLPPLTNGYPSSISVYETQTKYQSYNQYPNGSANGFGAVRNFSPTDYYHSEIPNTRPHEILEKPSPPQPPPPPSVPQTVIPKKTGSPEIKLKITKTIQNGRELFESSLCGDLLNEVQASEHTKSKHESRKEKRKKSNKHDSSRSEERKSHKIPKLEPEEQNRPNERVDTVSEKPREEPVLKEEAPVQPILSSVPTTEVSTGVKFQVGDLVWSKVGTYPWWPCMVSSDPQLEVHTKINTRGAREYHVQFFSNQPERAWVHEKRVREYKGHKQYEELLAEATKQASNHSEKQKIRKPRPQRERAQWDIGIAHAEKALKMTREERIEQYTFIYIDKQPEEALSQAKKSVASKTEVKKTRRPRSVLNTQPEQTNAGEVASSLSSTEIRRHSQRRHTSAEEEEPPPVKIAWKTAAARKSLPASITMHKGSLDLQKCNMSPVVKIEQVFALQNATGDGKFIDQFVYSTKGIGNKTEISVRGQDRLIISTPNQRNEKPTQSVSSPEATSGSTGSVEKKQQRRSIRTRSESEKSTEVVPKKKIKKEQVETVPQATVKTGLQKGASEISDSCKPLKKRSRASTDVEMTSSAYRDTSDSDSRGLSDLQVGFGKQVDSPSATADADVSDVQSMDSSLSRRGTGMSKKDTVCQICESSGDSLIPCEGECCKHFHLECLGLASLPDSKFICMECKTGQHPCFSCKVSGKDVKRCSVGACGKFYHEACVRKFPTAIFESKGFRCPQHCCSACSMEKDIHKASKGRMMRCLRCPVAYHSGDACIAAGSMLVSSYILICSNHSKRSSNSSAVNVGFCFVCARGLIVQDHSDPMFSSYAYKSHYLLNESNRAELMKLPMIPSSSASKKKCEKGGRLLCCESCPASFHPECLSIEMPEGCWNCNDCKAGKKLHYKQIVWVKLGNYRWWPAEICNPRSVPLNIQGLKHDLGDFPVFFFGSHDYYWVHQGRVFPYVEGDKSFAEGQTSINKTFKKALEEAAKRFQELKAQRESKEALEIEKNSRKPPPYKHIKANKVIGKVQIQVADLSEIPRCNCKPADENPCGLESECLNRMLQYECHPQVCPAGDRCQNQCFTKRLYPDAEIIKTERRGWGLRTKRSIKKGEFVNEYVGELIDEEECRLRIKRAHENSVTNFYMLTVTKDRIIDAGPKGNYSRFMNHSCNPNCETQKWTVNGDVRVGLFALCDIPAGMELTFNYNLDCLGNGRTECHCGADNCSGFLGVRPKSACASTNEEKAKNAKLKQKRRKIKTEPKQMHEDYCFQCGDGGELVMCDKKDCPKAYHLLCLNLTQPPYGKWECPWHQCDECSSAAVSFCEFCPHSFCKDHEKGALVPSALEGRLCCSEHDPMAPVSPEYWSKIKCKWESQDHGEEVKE
How it was run: as §1

SUV420H1 = biological target: T2, SUV420H1 (Homo sapiens, UniProt Q4FZB7)
T2 construct: gene KMT5B
T2 sequence (Q4FZB7 whole entry): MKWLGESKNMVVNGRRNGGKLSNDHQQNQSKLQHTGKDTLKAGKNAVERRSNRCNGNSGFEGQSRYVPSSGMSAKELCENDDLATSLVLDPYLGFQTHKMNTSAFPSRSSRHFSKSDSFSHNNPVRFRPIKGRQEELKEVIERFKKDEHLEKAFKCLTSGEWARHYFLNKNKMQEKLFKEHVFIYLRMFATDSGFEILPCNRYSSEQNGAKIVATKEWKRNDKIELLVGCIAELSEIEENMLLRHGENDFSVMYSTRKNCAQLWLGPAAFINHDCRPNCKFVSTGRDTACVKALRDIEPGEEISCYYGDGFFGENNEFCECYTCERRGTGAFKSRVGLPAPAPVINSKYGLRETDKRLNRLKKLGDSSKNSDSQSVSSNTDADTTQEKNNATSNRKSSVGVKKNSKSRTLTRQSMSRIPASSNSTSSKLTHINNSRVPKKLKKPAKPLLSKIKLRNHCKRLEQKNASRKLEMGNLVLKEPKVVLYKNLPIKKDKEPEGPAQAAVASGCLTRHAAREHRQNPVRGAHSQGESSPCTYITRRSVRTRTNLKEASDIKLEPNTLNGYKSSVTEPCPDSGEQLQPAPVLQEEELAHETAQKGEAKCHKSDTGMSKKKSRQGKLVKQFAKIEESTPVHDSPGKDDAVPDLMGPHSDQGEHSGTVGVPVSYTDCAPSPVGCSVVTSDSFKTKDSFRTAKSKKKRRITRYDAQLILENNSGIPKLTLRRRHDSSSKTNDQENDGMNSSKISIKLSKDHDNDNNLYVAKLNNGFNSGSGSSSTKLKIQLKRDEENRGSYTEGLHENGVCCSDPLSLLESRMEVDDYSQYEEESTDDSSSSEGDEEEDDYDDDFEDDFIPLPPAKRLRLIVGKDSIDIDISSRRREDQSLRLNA
How it was run: as §1

SMYD3 = biological target: T3, SMYD3 (Homo sapiens, UniProt Q9H7B4)
T3 sequence (Q9H7B4 1-428): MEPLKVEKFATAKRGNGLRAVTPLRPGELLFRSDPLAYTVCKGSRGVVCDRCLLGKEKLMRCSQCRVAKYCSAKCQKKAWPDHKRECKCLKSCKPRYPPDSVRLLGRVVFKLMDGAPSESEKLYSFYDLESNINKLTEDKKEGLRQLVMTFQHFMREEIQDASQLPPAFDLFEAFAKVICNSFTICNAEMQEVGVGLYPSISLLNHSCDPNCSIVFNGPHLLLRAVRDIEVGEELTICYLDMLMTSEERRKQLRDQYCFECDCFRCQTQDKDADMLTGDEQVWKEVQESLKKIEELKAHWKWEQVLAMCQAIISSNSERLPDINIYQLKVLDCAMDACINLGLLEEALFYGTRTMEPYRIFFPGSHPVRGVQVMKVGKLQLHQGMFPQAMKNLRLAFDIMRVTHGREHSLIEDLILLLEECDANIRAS
How it was run: as §1

DNMT3B/3L = DNMT3B/3L (Homo sapiens, UniProt Q9UBC3)

PRMT6, sequence (Q96LA8 whole entry): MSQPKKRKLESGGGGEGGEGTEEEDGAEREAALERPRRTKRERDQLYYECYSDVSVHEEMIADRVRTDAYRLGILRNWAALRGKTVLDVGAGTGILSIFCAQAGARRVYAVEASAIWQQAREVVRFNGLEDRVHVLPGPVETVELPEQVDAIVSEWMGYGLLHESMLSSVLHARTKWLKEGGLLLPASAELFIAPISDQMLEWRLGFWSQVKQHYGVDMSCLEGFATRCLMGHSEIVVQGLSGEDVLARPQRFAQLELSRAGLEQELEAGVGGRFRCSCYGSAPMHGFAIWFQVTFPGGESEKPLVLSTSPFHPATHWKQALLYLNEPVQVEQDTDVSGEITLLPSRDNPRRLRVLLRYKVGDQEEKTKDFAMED

Compound: CC1(C)O[C@@H]2[C@H](O1)[C@@H](CSCCCCNCc1cccc(-c3ccc(Cl)cc3)c1)O[C@H]2n1cnc2c(N)ncnc21 [SGC8158N]
- remaining activity at 1 µM (PRMT6): 94%
- remaining activity at 10 µM (PRMT6): 87%
- remaining activity at 1 µM (NSD3): 100%
- remaining activity at 10 µM (NSD3): 97%
- remaining activity at 1 µM (SUV420H1): 99%
- remaining activity at 10 µM (SUV420H1): 102%
- remaining activity at 1 µM (SMYD3): 100%
- remaining activity at 10 µM (SMYD3): 102%
- remaining activity at 1 µM (DNMT3B/3L): 104%
- remaining activity at 10 µM (DNMT3B/3L): 103%

Compound: Nc1ncnc2c1ncn2[C@@H]1O[C@H](CSCCCCNCc2cccc(-c3ccc(Cl)cc3)c2)[C@@H](O)[C@H]1O [SGC8158]
- remaining activity at 1 µM (PRMT6): 100%
- remaining activity at 10 µM (PRMT6): 58%
- remaining activity at 1 µM (NSD3): 97%
- remaining activity at 10 µM (NSD3): 95%
- remaining activity at 1 µM (SUV420H1): 96%
- remaining activity at 10 µM (SUV420H1): 87%
- remaining activity at 1 µM (SMYD3): 102%
- remaining activity at 10 µM (SMYD3): 104%
- remaining activity at 1 µM (DNMT3B/3L): 100%
- remaining activity at 10 µM (DNMT3B/3L): 101%

From article PMC7224190, “Pharmacological inhibition of PRMT7 links arginine monomethylation to the cellular stress response” (Nature Communications, 2020)
